According to ChEMBL document CHEMBL1201862, “PubChem BioAssay data set” (2004):
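Each compound was tested at five concentrations against cells in 96-well plates for 48 hours. Abbreviation: GI50, concentration required for 50% inhibition of growth.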 Active and inactive are the calls of the source. Cut-off read from the data, not from the text of the source: active = GI50 up to about 1.1 µM and inactive = higher.

Legend:
Assay in all cases: inhibition of tumour cell growth, NCI panel, 48 h
[1] = system: 786-0
[2] = system: A498
[3] = system: A549
[4] = system: ACHN
[5] = system: BT-549
[6] = system: CAKI-1
[7] = system: CCRF-CEM
[8] = system: COLO 205
[9] = system: DU-145
[10] = system: EKVX
[11] = system: HCC 2998
[12] = system: HCT-116
[13] = system: HCT-15
[14] = system: HL-60
[15] = system: HOP-62
[16] = system: HOP-92
[17] = system: HT-29
[18] = system: Hs-578T
[19] = system: IGROV-1
[20] = system: K562
[21] = system: KM12
[22] = system: LOX IMVI
[23] = system: M14
[24] = system: MCF7
[25] = system: MDA-MB-231
[26] = system: MDA-MB-435
[27] = system: MDA-N
[28] = system: MOLT-4
[29] = system: Malme-3M
[30] = system: NCI-H226
[31] = system: NCI-H23
[32] = system: NCI-H460
[33] = system: NCI-H522
[34] = system: NCI/ADR-RES
[35] = system: OVCAR-3
[36] = system: OVCAR-4
[37] = system: OVCAR-5
[38] = system: OVCAR-8
[39] = system: PC-3
[40] = system: RPMI-8226
[41] = system: RXF 393
[42] = system: SF-268
[43] = system: SF-295
[44] = system: SF-539
[45] = system: SK-MEL-28
[46] = system: SK-MEL-2
[47] = system: SK-MEL-5
[48] = system: SK-OV-3
[49] = system: SN12C
[50] = system: SNB-19
[51] = system: SNB-75
[52] = system: SR
[53] = system: SW-620
[54] = system: T47D
[55] = system: TK-10
[56] = system: U-251
[57] = system: UACC-62
[58] = system: UO-31
[59] = system: UACC-257

Measured: GI50

Cc1cc(C)c2c(=O)n(CN3CCC(O)(c4ccccc4)CC3)sc2n1
inactive: [1] 17.1 µM | [2] 78.3 µM | [3] > 100 µM | [4] 19.4 µM | [5] 97.3 µM | [6] 43.5 µM | [7] 19.4 µM | [8] 39.2 µM | [9] 38.3 µM | [10] 25 µM | [11] 27.4 µM | [12] 39.9 µM | [14] 20 µM | [15] 34.7 µM | [16] > 100 µM | [17] 28.4 µM | [18] 40 µM | [19] > 100 µM | [20] 24 µM | [21] > 100 µM | [22] 31.1 µM | [23] 50 µM | [24] 47.9 µM | [25] 73.1 µM | [26] 20.4 µM | [27] 19.6 µM | [28] 28.1 µM | [29] 17.6 µM | [30] > 100 µM | [31] 27.8 µM | [32] 29 µM | [33] 11.8 µM | [34] 53.1 µM | [35] 38.4 µM | [36] 29.4 µM | [37] 23 µM | [38] 30.1 µM | [39] 60.1 µM | [40] 23.4 µM | [41] 19.8 µM | [42] 31.1 µM | [43] > 100 µM | [44] 21.2 µM | [45] 56.2 µM | [46] > 100 µM | [47] 97.3 µM | [48] > 100 µM | [49] 25.7 µM | [50] > 100 µM | [51] 19.2 µM | [52] 29.9 µM | [53] 26.8 µM | [54] 80.9 µM | [55] 11.6 µM | [56] 77.8 µM | [57] 50.9 µM | [58] 17.2 µM
34.7 µM: [13]

N#CCN1CCN(CC#N)CCN(CC#N)CCN(CC#N)CC1
inactive: [1] > 100 µM | [2] > 100 µM | [3] > 100 µM | [4] > 100 µM | [5] > 100 µM | [6] > 100 µM | [7] 67 µM | [8] > 100 µM | [9] > 100 µM | [11] 43.5 µM | [12] > 100 µM | [14] 33.3 µM | [15] > 100 µM | [16] > 100 µM | [17] 50.5 µM | [18] > 100 µM | [19] > 100 µM | [20] > 100 µM | [21] > 100 µM | [22] 33.3 µM | [23] > 100 µM | [24] 43.1 µM | [25] > 100 µM | [26] > 100 µM | [27] > 100 µM | [28] > 100 µM | [29] > 100 µM | [30] > 100 µM | [31] > 100 µM | [32] 53.3 µM | [33] > 100 µM | [34] > 100 µM | [35] > 100 µM | [36] > 100 µM | [37] > 100 µM | [38] > 100 µM | [39] 96.4 µM | [40] 38.3 µM | [41] 79.6 µM | [42] > 100 µM | [43] > 100 µM | [44] > 100 µM | [45] > 100 µM | [46] > 100 µM | [47] > 100 µM | [48] 46.8 µM | [49] > 100 µM | [50] > 100 µM | [51] > 100 µM | [52] > 100 µM | [53] 42 µM | [54] > 100 µM | [55] > 100 µM | [56] > 100 µM | [59] > 100 µM | [57] 80.2 µM | [58] > 100 µM

O=C(Nc1cccc(NC(=O)C(=O)C2CCC3=C(Sc4ccccc4N3)C2=O)n1)C(=O)C1CCC2=C(Sc3ccccc3N2)C1=O (configuration not stated)
30.7 µM: [13]
inactive: [1] 91.8 µM | [2] > 100 µM | [3] > 100 µM | [4] 76.6 µM | [5] 79.6 µM | [6] 38.3 µM | [7] 70.1 µM | [8] 37.2 µM | [9] > 100 µM | [10] 85.1 µM | [11] 29.8 µM | [12] 40.6 µM | [14] 39.5 µM | [16] > 100 µM | [17] 67.9 µM | [18] 53 µM | [19] 32.9 µM | [20] 43.7 µM | [21] 29.2 µM | [22] 73.1 µM | [23] 86.3 µM | [24] 75.7 µM | [25] > 100 µM | [26] 85.9 µM | [27] 40.2 µM | [28] 68.9 µM | [29] > 100 µM | [30] 26.5 µM | [31] 68.9 µM | [32] 65.9 µM | [33] 74.6 µM | [34] 40.8 µM | [35] > 100 µM | [36] 18.9 µM | [37] > 100 µM | [38] 43.8 µM | [39] 27.4 µM | [40] 40.2 µM | [41] > 100 µM | [42] 44.8 µM | [43] 42.6 µM | [44] 13.1 µM | [45] > 100 µM | [46] > 100 µM | [47] 41.2 µM | [48] > 100 µM | [49] 74.3 µM | [50] 73.6 µM | [51] 9.68 µM | [52] 71.4 µM | [53] 40.7 µM | [54] 50.4 µM | [56] 45.1 µM | [59] > 100 µM | [57] 96.4 µM | [58] 47.3 µM
